This passage reports EC50 and IC50 results from patent publication US9963496B2, “Stable glucagon analogues and use for treatment of hypoglycaemia” (Novo Nordisk A/S, priority 2014, dated 2018).

*1 amine or outer side, *2 acyl side, *3 side chain or, on linkers, in order; H or OH if unused. Where a SMILES comes first, the peptide text is derived from it. Side-chain parts run from the residue outwards. [ ]: non-standard residue; d: D form. The star is where a group is joined. γGlu = O=C(O)[C@H](CCC(=O)[*:2])N[*:1]; Desaminohistidyl = O=C(CCc1c[nH]cn1)*; Aib = CC(C)(N)C(=O)O

In experiment [1] the target is T1, human glucagon receptor (Homo sapiens, UniProt P47871).
T1 construct: expressed in transfected cells; host or cells: BHK cells, clone BHK hGCGR A3*25; isolated membranes
T1 sequence (P47871 26-477): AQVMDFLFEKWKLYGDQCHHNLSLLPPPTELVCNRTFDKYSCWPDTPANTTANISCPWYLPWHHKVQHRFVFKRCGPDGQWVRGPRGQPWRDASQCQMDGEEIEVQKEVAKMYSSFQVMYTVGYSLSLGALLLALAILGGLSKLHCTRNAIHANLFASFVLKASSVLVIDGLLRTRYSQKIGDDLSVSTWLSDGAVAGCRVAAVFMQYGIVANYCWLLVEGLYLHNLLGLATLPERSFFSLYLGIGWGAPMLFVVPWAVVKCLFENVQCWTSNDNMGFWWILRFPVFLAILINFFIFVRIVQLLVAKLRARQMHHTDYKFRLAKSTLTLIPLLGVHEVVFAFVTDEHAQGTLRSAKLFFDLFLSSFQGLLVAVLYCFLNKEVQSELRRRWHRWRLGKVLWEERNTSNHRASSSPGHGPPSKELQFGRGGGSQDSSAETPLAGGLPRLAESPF
The experiment can be described thus: Assay (I)(b): glucagon receptor activation, CRE luciferase reporter gene assay in BHK cells. Format: cell-based. Particulars: BHK cells expressing human glucagon receptor and CRE luciferase, 3 h incubation; read-out: EC50 hGlucagonR. Put shortly:
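BHK570 cells stably expressing the human glucagon receptor and CRE-luciferase, 5×10 EE3 cells/well in DMEM with 2% ovalbumin and 0.2% Pluronic F-68. Compounds at final 1×10 EE-6 to 1×10 EE-13 M, 3 h at 37° C. Luminescence read; EC50 by four-parameter fit.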
A general note: In a reporter assay the amount or activity of a reporter protein is the signal.

In experiment [2] the target is T1, human glucagon receptor. Nature of the experiment: Assay (II)(b): glucagon receptor binding, 125I-glucagon displacement on isolated membranes (SPA). The settings on record: displacement of 125I-glucagon, membranes of BHK cells with human glucagon receptor, 2 h at 25° C.; read-out: IC50 hGlucagonR. The procedure:
(b) Glucagon Receptor Binding
The purpose of this assay was to test the in vitro receptor binding activity of the glucagon derivatives of the invention. The receptor binding activity is a measure of affinity of a derivative for the human glucagon receptor.
The receptor binding of each compound to the human glucagon receptor was measured in a displacement binding assay. In this type of assay a labelled ligand (in this case 125I-glucagon) is bound to the receptor. Each derivative is added in a series of concentrations to isolated membranes containing the human glucagon receptor and displacement of the labelled ligand is monitored. The receptor binding is reported as the concentration at which half of the labelled ligand is displaced from the receptor, the IC50 value.
HME buffer consisted of 25 mM HEPES, 2 mM MgCl2 and 1 mM EDTA, and pH was adjusted to 7.4. Binding buffer consisted of 50 mM HEPES supplemented with 5 mM MgCl2, 1 mM CaCl2, 0.02% Tween 20 and 0.1% Ovalbumin, and pH was adjusted to 7.4.
The cells used in this assay (clone BHK hGCGR A3*25) were BHK cells stable transfected with an expression plasmid containing the cDNA encoding the human glucagon receptor.
The cells were grown at 5% CO2 in DMEM, 10% fetal calf serum, 1% Pen/Strep (Penicillin/Streptomycin) and 1.0 mg/mL of the selection marker G418. To make a membrane preparation the cells were grown to approximately 80% confluence. The cells were washed twice in phosphate-buffered saline and harvested. The cells were pelleted using a brief centrifugation and the cell pellet was kept on ice. The cells were lysed by adding approx. 5 mL HME buffer, mix by pipetting and snap freeze in liquid nitrogen. The cell lysate was quickly thawed and HME buffer added to 10 mL. The cell pellet was homogenised with an ULTRA-THURRAX dispersing instrument for 20-30 seconds. The homogenate was centrifuged at 20,000×G, 4° C. for 10 minutes. The pellet was resuspended (homogenised) in 1-2 mL HME buffer. The protein concentration was determined. The membranes were aliquoted and snap frozen in liquid nitrogen and stored at minus 80° C.
• 1. For the receptor binding assay 50 μl of the assay buffer was added to each well of an assay plate. • 2. Test compounds were serially diluted to give the following concentrations: 8×10 EE-7 M, 8×10 EE-8 M, 8×10 EE-9 M, 8×10 EE-10 M, 8×10 EE-11 M, 8×10 EE-12 M and 8×10 EE-13 M. Twenty-five μl were added to appropriate wells in the assay plate. • 3. Cell membrane aliquots were thawed and diluted to their working concentration. Fifty μl were added to each well in the assay plate. • 4. WGA SPA beads were suspended in assay buffer at 20 mg/mL. The suspension was diluted to 10 mg/mL in assay buffer just prior to addition to the assay plate. Fifty μl were added to each well in the assay plate. • 5. The incubation was started by adding 25 μl of 480 pM solution of [125I]-glucagon to each well of the assay plate. A 25 μl aliquot was reserved for measuring total counts/well. • 6. The assay plate was incubated for 2 h at 25° C. • 7. The assay plate was centrifuged for 10 min at 1500 rpm. • 8. The assay plate was read in a Packard TopCount NXT instrument. Calculations
The data from the TopCount instrument were transferred to GraphPad Prism software. The software averaged the values for the replicates and performed a non-linear regression.
For orientation: Loss of bound radioactivity is the signal in a displacement assay; it reports binding, not function.

For `CC(=O)N[C@@H](CCC(=O)N[C@@H](CCC(=O)N[C@@H](CCC(=O)N[C@@H](CCC(=O)NCCCC[C@H](NC(=O)[C@@H](NC(=O)[C@H](Cc1ccccc1)NC(=O)[C@H](CC(=O)O)NC(=O)[C@H](CCC(N)=O)NC(=O)[C@H](C)NC(=O)[C@H](CCCNC(=N)N)NC(=O)[C@H](CCCNC(=N)N)NC(=O)[C@H](CC(C)C)NC(=O)[C@H](CC(=O)O)NC(=O)[C@H](CC(C)C)NC(=O)[C@H](Cc1ccc(O)cc1)NC(=O)[C@H](CCCCN)NC(=O)[C@H](CO)NC(=O)[C@H](Cc1ccc(O)cc1)NC(=O)[C@H](CC(=O)O)NC(=O)[C@H](CO)NC(=O)[C@@H](NC(=O)[C@H](Cc1ccccc1)NC(=O)[C@@H](NC(=O)CNC(=O)[C@H](Cc1c[nH]cn1)NC(=O)C(C)(C)NC(=O)CCc1c[nH]cn1)[C@@H](C)O)[C@@H](C)O)C(C)C)C(=O)N[C@@H](Cc1c[nH]c2ccccc12)C(=O)N[C@@H](CC(C)C)C(=O)N[C@@H](CC(C)C)C(=O)N[C@@H](CO)C(=O)N[C@H](C(=O)O)[C@@H](C)O)C(=O)O)C(=O)O)C(=O)O)C(=O)O` [Example 1, N^ϵ24-[(4S)-4-[[(4S)-4-[[(4S)-4-[[(4S)-4-acetamido-4-carboxybutanoyl]amino]-4-carboxybutanoyl]amino]-4-carboxybutanoyl]amino]-4-carboxybutanoyl]-[Imp1, Aib2, His3, Leu16, Lys24, Leu27, Ser28]-Glucagon] (Desaminohistidyl-[Aib]HGTFTSDYSKYLDLRRAQDFVK([γGlu-γGlu-γGlu-γGlu-Ac])WLLST-OH), the EC50 (as a rule, the concentration giving half of the maximal effect) in experiment [1] was 0.001 nM. Also, in experiment [2], the half-maximal inhibitory concentration (IC50) – broadly, the point on the concentration scale where inhibition reaches its midpoint – came out at 0.2 nM.

As to `CC(=O)N[C@@H](CCC(=O)N[C@@H](CCC(=O)N[C@@H](CCC(=O)N[C@@H](CCC(=O)NCCCC[C@H](NC(=O)[C@@H](NC(=O)[C@H](Cc1ccccc1)NC(=O)[C@H](CC(=O)O)NC(=O)[C@H](CCC(N)=O)NC(=O)[C@H](C)NC(=O)[C@H](CCCNC(=N)N)NC(=O)[C@H](CCCNC(=N)N)NC(=O)[C@@H](NC(=O)[C@H](CC(=O)O)NC(=O)[C@H](CC(C)C)NC(=O)[C@H](Cc1ccc(O)cc1)NC(=O)[C@H](CCCCN)NC(=O)[C@H](CO)NC(=O)[C@H](Cc1ccc(O)cc1)NC(=O)[C@H](CC(=O)O)NC(=O)[C@H](CO)NC(=O)[C@@H](NC(=O)[C@H](Cc1ccccc1)NC(=O)[C@@H](NC(=O)CNC(=O)[C@H](Cc1c[nH]cn1)NC(=O)C(C)(C)NC(=O)CCc1c[nH]cn1)[C@@H](C)O)[C@@H](C)O)C(C)C)C(C)C)C(=O)N[C@@H](Cc1c[nH]c2ccccc12)C(=O)N[C@@H](CC(C)C)C(=O)N[C@@H](CC(C)C)C(=O)N[C@@H](CO)C(=O)N[C@H](C(=O)O)[C@@H](C)O)C(=O)O)C(=O)O)C(=O)O)C(=O)O` [Example 10, N^ϵ24-[(4S)-4-[[(4S)-4-[[(4S)-4-[[(4S)-4-acetamido-4-carboxybutanoyl]amino]-4-carboxybutanoyl]amino]-4-carboxybutanoyl]amino]-4-carboxybutanoyl]-[Imp1, Aib2, His3, Val16, Lys24, Leu27, Ser28]-Glucagon] (Desaminohistidyl-[Aib]HGTFTSDYSKYLDVRRAQDFVK([γGlu-γGlu-γGlu-γGlu-Ac])WLLST-OH), the EC50 in experiment [1] stood at 0.002 nM. For the same compound, the IC50 in experiment [2] was determined as 0.5 nM.

In the case of `CC(=O)N[C@@H](CCC(=O)N[C@@H](CCC(=O)N[C@@H](CCC(=O)N[C@@H](CCC(=O)NCCCC[C@H](NC(=O)[C@H](CC(C)C)NC(=O)[C@H](CC(C)C)NC(=O)[C@H](Cc1c[nH]c2ccccc12)NC(=O)[C@H](C)NC(=O)[C@@H](NC(=O)[C@H](Cc1ccccc1)NC(=O)[C@H](CC(=O)O)NC(=O)[C@H](CCC(N)=O)NC(=O)[C@H](C)NC(=O)[C@H](CCCNC(=N)N)NC(=O)[C@H](CCCNC(=N)N)NC(=O)[C@H](CO)NC(=O)[C@H](CCC(=O)O)NC(=O)[C@H](CC(C)C)NC(=O)[C@H](Cc1ccc(O)cc1)NC(=O)[C@H](CCCCN)NC(=O)[C@H](CO)NC(=O)[C@H](Cc1ccc(O)cc1)NC(=O)[C@H](CC(=O)O)NC(=O)[C@H](CO)NC(=O)[C@@H](NC(=O)[C@H](Cc1ccccc1)NC(=O)[C@@H](NC(=O)CNC(=O)[C@H](Cc1c[nH]cn1)NC(=O)C(C)(C)NC(=O)CCc1c[nH]cn1)[C@@H](C)O)[C@@H](C)O)C(C)C)C(=O)N[C@H](C(=O)O)[C@@H](C)O)C(=O)O)C(=O)O)C(=O)O)C(=O)O` [Example 4, N^ϵ28-[(4S)-4-[[(4S)-4-[[(4S)-4-[[(4S)-4-acetamido-4-carboxybutanoyl]amino]-4-carboxybutanoyl]amino]-4-carboxybutanoyl]amino]-4-carboxybutanoyl]-[Imp1, Aib2, His3, Glu15, Ala24, Leu27, Lys28]-Glucagon] (Desaminohistidyl-[Aib]HGTFTSDYSKYLESRRAQDFVAWLLK([γGlu-γGlu-γGlu-γGlu-Ac])T-OH), the EC50 in experiment [1] came out at 0.005 nM. Moreover, the IC50 in experiment [2] stood at 1.8 nM.

For the compound `CC(=O)N[C@@H](CCC(=O)N[C@@H](CCC(=O)N[C@@H](CCC(=O)N[C@@H](CCC(=O)NCCCC[C@H](NC(=O)[C@@H](NC(=O)[C@H](Cc1ccccc1)NC(=O)[C@H](CCC(=O)O)NC(=O)[C@H](CCC(N)=O)NC(=O)[C@H](C)NC(=O)[C@H](CCCNC(=N)N)NC(=O)[C@H](CCCNC(=N)N)NC(=O)[C@H](CC(C)C)NC(=O)[C@H](CC(=O)O)NC(=O)[C@H](CC(C)C)NC(=O)[C@H](Cc1ccc(O)cc1)NC(=O)[C@H](CCCCN)NC(=O)[C@H](CO)NC(=O)[C@H](Cc1ccc(O)cc1)NC(=O)[C@H](CC(=O)O)NC(=O)[C@H](CO)NC(=O)[C@@H](NC(=O)[C@H](Cc1ccccc1)NC(=O)[C@@H](NC(=O)CNC(=O)[C@H](Cc1c[nH]cn1)NC(=O)[C@H](CO)NC(=O)CCc1c[nH]cn1)[C@@H](C)O)[C@@H](C)O)C(C)C)C(=O)N[C@@H](Cc1c[nH]c2ccccc12)C(=O)N[C@@H](CC(C)C)C(=O)N[C@@H](CC(C)C)C(=O)N[C@@H](CO)C(=O)N[C@H](C(=O)O)[C@@H](C)O)C(=O)O)C(=O)O)C(=O)O)C(=O)O` [Example 8, N^ϵ24-[(4S)-4-[[(4S)-4-[[(4S)-4-[[(4S)-4-acetamido-4-carboxybutanoyl]amino]-4-carboxybutanoyl]amino]-4-carboxybutanoyl]amino]-4-carboxybutanoyl]-[Imp1, His3, Leu16, Glu21, Lys24, Leu27, Ser28]-Glucagon] (Desaminohistidyl-SHGTFTSDYSKYLDLRRAQEFVK([γGlu-γGlu-γGlu-γGlu-Ac])WLLST-OH), in experiment [1], the EC50 amounted to 0.001 nM. Besides, the IC50 in experiment [2] worked out at 0.2 nM.
